Laboratory results: US7927811B2, “Polypeptides having brain-localizing activity and uses thereof” (Proteus Sciences Co., Ltd., priority 2003, dated 2011)

Tested on: mouse brain tissues (cerebral parenchyma)
Test: Brain-localizing peptide conjugates bound to gold colloids administered to mice; transmission electron microscopy of brain tissue sections
Format: in vivo
Conditions: biotin-conjugated peptide + avidin-gold particles administered to mice; electron micrographs, hippocampal pyramidal cells and cerebellar Purkinje cell region
Description: The present inventors produced brain-localizing peptide conjugates. The conjugates are molecules that can have a cyclic structure due to the formation of a disulfide bond between cysteine residues in a peptide molecule of the present invention, and may also have biotin attached to them. The conjugates have affinity to avidin compounds.
The conjugates were bound to gold colloids and administered to mice, and the mice were subjected to experiments that evaluate the brain-localizing activity of the peptides of the present invention (observation of brain tissue sections under a transmission electron microscope).
[Section Preparation] • (i) trimming • (ii) preparation of thick sections (2 to 3 μm thick) using a glass knife • (iii) preparation of ultra-thin sections (50 to 100 nm thick) using a diamond knife • (iv) electron staining: 2% uranium acetate and then 1% lead citrate (3 minutes each) • (v) transmission electron microscope observation (acceleration voltage of 80 kV)
In the present experiment, T2J002 (SEQ ID NO: 2) and T2J004 (SEQ ID NO: 4) were used as peptides of the present invention. The arrows show positions of the gold particle-bound peptide molecules of the present invention. […] More specifically, the peptides of the present invention were confirmed to have brain-localizing activity.

Sequence	transport of gold colloids into the cerebral parenchyma (brain-localizing activity)
CSLNTRSQC [T2J002]	successfully transport the gold colloids into the cerebral parenchyma
CVVRHLQQC [T2J004]	successfully transport the gold colloids into the cerebral parenchyma
